The values that follow come from patent US8980846B2, “Composition containing styraxlignolide A or the aglycone thereof as an active ingredient for preventing or treating asthma” (Korea Research Institute of Bioscience and Biotechnology, priority 2010, dated 2015).

Holding throughout (type): in vivo, Balb/c female mice
One experiment concerns IL-17. The experiment can be described thus: IL-17 in bronchoalveolar lavage fluid. Particulars: asthma-induced mice, homoegonol study. The method, then: (§1) To prepare bronchial asthma-induced experimental animals, six-week-old Balb/c female mice of mean weight about 20 g were used. After one week of adaptation, individuals which had no observed abnormality on a basic physical examination were targeted. 200 μL of phosphate buffered saline (PBS)(pH 7.4) in which 2 mg of aluminum hydroxide (A8222, Sigma, St. Louis, Mo.) and 20 μg of ovalbumin (A5503, Sigma, St. Louis, Mo.) were suspended was injected into the peritoneal cavity at two-week intervals to result in sensitization. On days 28 to 30 after the first intraperitoneal administration of ovalbumin, inhalation challenge was performed for 30 min with 1% ovalbumin using an ultrasonic atomizer. 24 hours after the last antigen administration, airway hyperresponsiveness was measured. After 24 hours, a lethal dose of pentobarbital (Entobar®, Hanlim Pharm Co., Ltd.) was administered, body weight measurement and bronchotomy were performed, and bronchoalveolar lavage was performed with a total 1.2 mL of physiological saline, and then, samples were collected. […] Eight white mice were used for each group. Experimental groups for homoegonol were a group (hE7.5) in which animals were orally administered with 7.5 mg/kg homoegonol 1 hour prior to ovalbumin inhalation, a group (hE15) in which animals were orally administered with 15 mg/kg homoegonol 1 hour prior to ovalbumin inhalation, and a group (hE30) in which animals were orally administered with 30 mg/kg homoegonol 1 hour prior to ovalbumin inhalation, and five white mice were used for each group.
(§2) To examine the effect of homoegonol on airway remodeling, generation of TGF-β1 and IL-17 in bronchoalveolar lavage fluid was measured.

The subject of experiment [1] is inflammatory cells in bronchoalveolar lavage fluid. The experiment can be described thus: Inflammatory cell counts in bronchoalveolar lavage fluid (Diff-Quick staining). The conditions noted are these: asthma-induced mice, homoegonol study, bronchoalveolar lavage fluid. The method, then:
as §1
Bronchoalveolar lavage fluid was collected from individuals of each experimental group in <Example 2> and right after the collection, fluid was stained with trypan blue. The number of total cells except dead cells was calculated using a hemocytometer. Then, Diff-Quick staining (Sysmex, Swizerland) was performed after smear preparation with Cytospin II, and eosinophils and other inflammatory cells were differentially counted.
To examine the effect of homoegonol on asthma, variation in the numbers of asthma-related inflammatory cells was measured according to the method in <Experimental Example 3>.

For another experiment, the system named is goblet cells. Kind of experiment: Ratio of goblet cells to bronchial epithelial cells (PAS staining). Particulars: asthma-induced mice, homoegonol study. The method, then:
as §1
Lungs removed from each individual were subjected to conventional formalin fixation and paraffin embedding, and permanent section slides of 4 μm thickness were prepared, and periodic acid Schiff (PAS) staining was performed to determine goblet cells. Proliferation of goblet cells was assessed by measuring the ratio of goblet cells to bronchial epithelial cells.
In accordance with the method in <Experimental Example 7-2>, the ratio of goblet cells which were determined by periodic acid-Schiff staining to bronchial epithelial cells were measured to assess proliferation of goblet cells.

The subject of experiment [2] is inflammatory cells in the airway mucosa. The experiment can be described thus: Inflammatory cell infiltration in airway mucosa, inflammatory index (H&E staining). Particulars: asthma-induced mice, homoegonol study, scale 0-4. The method, then:
as §1
Lungs removed from each individual were subjected to conventional formalin fixation and paraffin embedding, and permanent section slides of 4 μm thickness were prepared, and hematoxylin and eosin (H&E) staining was performed. After H&E staining, inflammatory index was measured from random five regions per section slide of each individual to calculate the mean value. Assessments were as follows: inflammatory index 0 is for the case that inflammatory cells are not observed around the bronchus; inflammatory index 1 is for the case that inflammatory cells are intermittently observed; inflammatory index 2 is for the case that thin inflammatory cell layers of one to two or three layers are observed around most of the bronchus; inflammatory index 3 is for the case that inflammatory cell layers of two or three to five or less layers are observed around most of the bronchus; and inflammatory index 4 is for the case that thick inflammatory cell layers of five or more layers are observed around most of the bronchus.
To examine the effect of homoegonol on asthma, lungs of which bronchoalveolar lavage was not performed were removed, and histopathological assessment was performed according to the method in <Experimental Example 7-1>. Since infiltration of inflammatory cells which are comprised of eosinophils, neutrophils, and macrophages are observed in an antigen-aroused bronchus, the present inventors tried to detect inflammatory cell infiltration.

The next experiment has as its system TGF-β1. The experiment can be described thus: TGF-β1 in bronchoalveolar lavage fluid. The conditions noted are these: asthma-induced mice, homoegonol study. The method, then: as §1, §2

As to `COc1ccc(-c2cc3cc(CCCO)cc(OC)c3o2)cc1OC` [homoegonol], the “IL-17 concentrations in bronchoalveolar lavage fluid” value came out at 70.3409 ± 14.2912 pg/mL in the experiment with IL-17 (7.5 mg/kg PO), 43.5682 ± 2.9102 pg/mL with IL-17 (15 mg/kg PO) and 27.3863 ± 5.7881 pg/mL in the experiment with IL-17 (30 mg/kg PO). In addition, the entries for the “Number of cells, Other inflammatory cells” value in experiment [1] (7.5 mg/kg PO), in experiment [1] (15 mg/kg PO) and in experiment [1] (30 mg/kg PO) were 33.40 ± 2.3467 ×10^3 cells/mouse, 30.00 ± 2.8267 ×10^3 cells/mouse and 28.4 ± 3.1739 ×10^3 cells/mouse, respectively. Further, the “Number of cells, Eosinophils” value is recorded as 12.80±2.50 ×10^3 cells/mouse in experiment [1] (7.5 mg/kg PO, 7.5 mg/kg); 6.32±0.86 ×10^3 cells/mouse in experiment [1] (15 mg/kg PO, 15 mg/kg); 5.48±2.02 ×10^3 cells/mouse in experiment [1] (30 mg/kg PO, 30 mg/kg). For the same compound, the “Number of cells, Total inflammatory cells” value is on record as 42.80±7.2060 ×10^3 cells/mouse in experiment [1] (7.5 mg/kg PO, 7.5 mg/kg); 39.72±4.4400 ×10^3 cells/mouse in experiment [1] (15 mg/kg PO, 15 mg/kg); 33.88±8.1589 ×10^3 cells/mouse in experiment [1] (30 mg/kg PO, 30 mg/kg). The “Goblet cells %/bronchial epithelial cell unit” value is 36.5600±11.5613% in the experiment on goblet cells (7.5 mg/kg PO, 7.5 mg/kg); 32.4109±10.8037% with goblet cells (15 mg/kg PO, 15 mg/kg); 25.0956±3.4033% in the experiment on goblet cells (30 mg/kg PO, 30 mg/kg). Besides, the “Inflammatory index, peribronchiolar” value in experiment [2] (7.5 mg/kg PO, 7.5 mg/kg) stood at 1.67±0.1491; in experiment [2] (15 mg/kg PO, 15 mg/kg) it was 1.40±0.1549; in experiment [2] (30 mg/kg PO, 30 mg/kg), 1.00±0.2449. Besides, the “Inflammatory index, perivascular” value is 1.89±0.1791 in experiment [2] (7.5 mg/kg PO, 7.5 mg/kg); 1.70±0.1449 in experiment [2] (15 mg/kg PO, 15 mg/kg); 1.30±0.2025 in experiment [2] (30 mg/kg PO, 30 mg/kg). Moreover, the results for the “TGF-β1 concentrations in bronchoalveolar lavage fluid” value in the experiment on TGF-β1 (7.5 mg/kg PO), in the experiment with TGF-β1 (15 mg/kg PO) and in the experiment with TGF-β1 (30 mg/kg PO) were 216.1875 ± 13.5904 pg/mL, 190.4375 ± 13.0702 pg/mL and 186.8125 ± 6.4551 pg/mL, respectively.
